Read-outs that look alike come from different tables or passages of the source.
How the values were obtained:
[1] = Microsomal stability assay, mouse liver microsomes; details: for microsomal CLint at 0.1 uM: male, CD-1, mouse, liver microsomes, pH 7.4, Microsomal Stability Mouse Clint, 0.1 mg/mL microsomes, 0.1 uM compound
Procedure: Mouse liver microsomes were obtained from a pool of 250 or more male CD-1 mice. […] Final microsomal concentration was 0.1 mg/mL and test compound concentration was 0.1 uM with a maximum of 0.01% DMSO. The test compound was pre-incubated with pooled liver microsomes in phosphate buffer (pH 7.4) for 5 min in a 37° C. shaking water bath. The reaction was initiated by adding NADPH-generating system and incubated for 0, 15, 30, 45, and 60 min. The reaction was stopped by transferring the incubation mixture to acetonitrile/methanol. Samples were then mixed and centrifuged. Supernatants were used for HPLC-MS/MS analysis. The HPLC system consisted of a binary LC pump with autosampler, a C-18 column, and a gradient. Peak areas corresponding to the test compound were recorded. The compound remaining was calculated by comparing the peak area at each time point to time zero. The half-life was calculated from the slope of the initial linear range of the logarithmic curve of compound remaining (%) vs. time, assuming first order kinetics. In addition, the intrinsic clearance (Clint) was calculated from the half-life.

[2] = biological target: T1, DNA-PK (Homo sapiens, UniProt P78527); assay: DNA-PK Assay for Biochemical Enzymatic Inhibition (ADP Glo Kinase assay); details: Table 1
T1 construct: purchased Invitrogen PR9107A
Outline: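 Human DNA-PK (25 ng) preincubated 15 min with compounds (ten three-fold dilutions) in HEPES pH 7.5, MgCl2, KCl, calf thymus DNA buffer, then substrate 434.4 μM and ATP 64.4 μM (final) for 60 min at room temperature. ADP-Glo luminescence; percent inhibition fitted by four-parameter regression for IC50.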

[3] = biological target: T2, pDNA-PK ser2056 induction in FaDU spheroids (Homo sapiens, UniProt P78527); assay: Multicellular tumour spheroid + radiation, pDNA-PK inhibition, FaDU; type: cell-based; details: 20 Gy
T2 construct: host or cells: FaDu
Procedure: (§1) Multicellular tumour spheroids determination of compound inhibition of pDNA-PK induction following radiation. Tumour spheroids were grown to approximately 0.5 mm in diameter and irradiated with 20 Gy in combination with inhibitor test compounds to determine their potency. Inhibitor concentration for 50% reduction in pDNA-PK induction (IC50) was determined via immunohistochemical staining in spheroid cryosections taken 2 hours following radiation. For cell survival endpoint 8 Gy radiation was used and 3 hours following radiation spheroids were dissociated, counted and plated for colony forming endpoint.
Spheroid+radiation pDNA-PK. Radiation: 20 Gy. Drug: serial dilution 5 or 10 μM down to 3.5 nM (11 wells). Spheroids: 3-6 spheroids per well (300-500 μm diameter). 20% O2 and 5% CO2. 96 well plate format. Endpoint: fluorescent immunostain pDNA-PK ser2056 and image on microscope. Analysis: determine EC50 concentrations that decreases pDNA-PK induction […] after irradiation.
(§2) Multicellular tumour spheroids were used to determine potency of test compounds in a 3D tissue environment using inhibition of pDNA-PK induction following radiation or cell survival as the endpoint. For the pDNA-PK endpoint HCT116 or FaDU tumour spheroids were grown to approximately 0.5 mm in diameter and irradiated with 20 Gy in combination with inhibitor test compounds to determine their potency. Experiments were carried out in 96 well plates containing 0.7 mls of MEM media containing 10% FBS and 10 mM glucose under 20% O2 & 5% CO2 at 37° C. Following dilution of compounds 1:1000 from DMSO stocks, compounds were serially diluted from 10 μM down to 3.5 nM and 5-10 spheroids added. 96 well plates were constantly stirred to avoid spheroids settling during the course of the experiment. The inhibitor concentration for 50% reduction in pDNA-PK induction (EC50) was determined via immunohistochemical staining in spheroid cryosections taken 2 hours following radiation using anti-pDNA-PK (ser 2056) and fixed immediately in formalin following sectioning. For cell survival endpoint 8 Gy radiation was used and, 3 hours following radiation, spheroids were dissociated, counted and plated for colony forming endpoint. Data presented in the table compound potency as EC50 [μM].

[4] = tested on: HCT116 spheroids; assay: Spheroid + radiation colony forming cell survival assay (SF), HCT116; type: cell-based; details: 8 Gy
Procedure: as §1
Spheroid+radiation colony forming cell survival assay (SF). Radiation 8 Gy. Drug: serial dilution 5 μM down to 10 nM (12 wells×2 repeat). Spheroids: 5-10 spheroids per well ([…]). HCT116. 5% O2 and 5% CO2. 96 well pate format for assay. Protocol: pre incubate 1 hour with drug, irradiate 8 Gy, post incubate 3 hrs with drug, dissociate spheroids and count cells and plate for colony forming assay. Endpoint: wait 4-7 days and count colonies. Analysis: determine EC50 concentration that increase cell kill by 50% over radiation alone.
as §2

[5] = Hepatocyte stability assay, mouse hepatocytes; type: in vitro ADME; details: for hepatocyte CLint at 1 uM: male, CD-1, mouse, cryopreserved hepatocytes, pH 7.3, 0.7 million cells per mL, 1 uM compound
Outline: (§3)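 Pooled cryopreserved hepatocytes (male CD-1 mouse, or mixed-gender human donors; ≥10 each) at 0.7 million viable cells/mL in Krebs-Henseleit buffer pH 7.3, with 1 uM compound (≤0.01% DMSO). Incubated up to 2 h at 37 °C/5% CO2, quenched with acetonitrile; parent compound followed by HPLC-MS/MS peak area.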

[6] = Hepatocyte stability assay, human hepatocytes; type: in vitro ADME
Outline: as §3

[7] = Microsomal stability assay, human liver microsomes; type: in vitro ADME
Procedure: Samples were then mixed and centrifuged. Supernatants were used for HPLC-MS/MS analysis. […] Peak areas corresponding to the test compound were recorded.

[8] = Example 8, spheroid, read-out: Cell line: FaDU Immunohistochemical endpoint pDNA-PK inhibition EC50
[9] = Example 9 Study 2, 20% O2, read-out: Spheroid Cell line: FaDU Immunohistochemical endpoint pDNA-PK inhibition EC50
[10] = Example 8, spheroid, read-out: Cell line: HCT116 Colony forming endpoint Surviving Fraction EC50
[11] = Example 9 Study 2, read-out: Spheroid Cell line: HCT116 Colony forming endpoint Surviving Fraction EC50

Microsomal Stability (mouse) % rem. 60 min [1]	microsomal CLint at 0.1 uM [1] [µL/min/mg]	IC50 [2] [nM]	EC50 [3, 8] [nM]	EC50 [3, 9] [nM]	Hepatocyte Stability (mouse) % rem. 120 min [5]	hepatocyte CLint at 1 uM [5] [µL/min/1e6 cells]	Hepatocyte Stability (human) % rem. 120 min ([6]; 120 min)	hepatocyte CLint at 1 uM ([6]; both sexes, human, cryopreserved hepatocytes, pH 7.3, 0.7 million cells per mL, 1 uM compound) [µL/min/1e6 cells]	Microsomal Stability (human) % rem. 60 min ([7]; 60 min)	microsomal CLint at 0.1 uM ([7]; both sexes, human, liver microsomes, pH 7.4, 0.1 mg/mL microsomes, 0.1 uM compound) [µL/min/mg]	SMILES	EC50 [4, 10] [nM]	EC50 [4, 11] [nM]
E (% remaining = 0-25%)	> 116	0.5 to 1	500 to 1000	500 to 1000	–	–	–	–	–	–	Fc1cn([C@H]2CC[C@@H](Oc3nc(N4CCOCC4)cc4ncccc34)CC2)cn1 [Compound 17a, 4-(5-(((1s,4s)-4-(4-fluoro-1H-imidazol-1-yl)cyclohexyl)oxy)-1,6-naphthyridin-7-yl)morpholine]	10 to 500	10 to 500
–	–	0.5 to 1	500 to 1000	500 to 1000	–	–	–	–	–	–	Cc1nc(C(F)(F)F)cn1[C@H]1CC[C@@H](Oc2nc(N3CCOCC3)cc3ncccc23)CC1 [Compound 17i, 4-(5-(((1s,4s)-4-(2-methyl-4-(trifluoromethyl)-1H-imidazol-1-yl)cyclohexyl)oxy)-1,6-naphthyridin-7-yl)morpholine]	10 to 500	10 to 500
E (% remaining = 0-25%)	> 116	< 0.5	500 to 1000	500 to 1000	–	–	–	–	–	–	FC(F)(F)c1cncn1[C@H]1CC[C@@H](Oc2nc(N3CCOCC3)cc3ncccc23)CC1 [Compound 17j, 4-(5-(((1s,4s)-4-(5-(trifluoromethyl)-1H-imidazol-1-yl)cyclohexyl)oxy)-1,6-naphthyridin-7-yl)morpholine]	500 to 1000	500 to 1000
F (% remaining = 25-50%)	> 116	1 to 10	500 to 1000	500 to 1000	–	–	–	–	–	–	Oc1cnc2cc(N3CCOCC3)nc(O[C@H]3CC[C@@H](Nc4ncccn4)CC3)c2c1 [Compound 19a, 7-Morpholino-5-(((1s,4s)-4-(pyrimidin-2-ylamino)cyclohexyl)oxy)-1,6-naphthyridin-3-ol]	500 to 1000	500 to 1000
–	–	1 to 10	500 to 1000	500 to 1000	–	–	–	–	–	–	CCOCCOc1cnc(N[C@H]2CC[C@@H](Oc3nc(N4CCOCC4)cc4ncc(O)cc34)CC2)nc1 [Compound 19b, 5-(((1s,4s)-4-((5-(2-Ethoxyethoxy)pyrimidin-2-yl)amino)cyclohexyl)oxy)-7-morpholino-1,6-naphthyridin-3-ol]	10 to 500	10 to 500
–	–	< 0.5	500 to 1000	500 to 1000	–	–	–	–	–	–	COc1cnc(N[C@H]2CC[C@@H](Oc3nc(N4CCOCC4)cc4ncc(O)cc34)CC2)nc1 [Compound 19c, 5-(((1s,4s)-4-((5-Methoxypyrimidin-2-yl)amino)cyclohexyl)oxy)-7-morpholino-1,6-naphthyridin-3-ol]	10 to 500	10 to 500
E (% remaining = 0-25%)	> 116	< 0.5	500 to 1000	500 to 1000	–	–	–	–	–	–	Cc1cnc(N[C@H]2CC[C@@H](Oc3nc(N4CCOCC4)cc4ncccc34)CC2)nc1 [Compound 32, 5-Methyl-N-((1s,4s)-4-((7-morpholino-1,6-naphthyridin-5-yl)oxy)cyclohexyl)pyrimidin-2-amine]	10 to 500	10 to 500
E (% remaining = 0-25%)	> 116	0.5 to 1	1000 to 10000	1000 to 10000	–	–	–	–	–	–	FC(F)(F)c1cnc(N[C@H]2CC[C@@H](Oc3nc(N4CCOCC4)cc4ncccc34)CC2)nc1 [Compound 34, N-((1s,4s)-4-((7-Morpholino-1,6-naphthyridin-5-yl)oxy)cyclohexyl)-5-(trifluoromethyl)pyrimidin-2-amine]	1000 to 10000	1000 to 10000
E (% remaining = 0-25%)	> 116	1 to 10	–	–	–	–	–	–	–	–	FC(F)Oc1cnc(N[C@H]2CC[C@@H](Oc3nc(N4CCOCC4)cc4ncccc34)CC2)nc1 [Compound 35, 5-(Difluoromethoxy)-N-((1s,4s)-4-((7-morpholino-1,6-naphthyridin-5-yl)oxy)cyclohexyl)pyrimidin-2-amine]	1000 to 10000	1000 to 10000
G (% remaining = 50-75%)	> 116	1 to 10	500 to 1000	500 to 1000	E (% remaining = 0-25%)	> 8.2	–	–	–	–	O=C(N[C@H]1CC[C@@H](Oc2nc(N3CCOCC3)cc3ncccc23)CC1)c1cncnc1 [Compound 122, N-((1s,4s)-4-((7-Morpholino-1,6-naphthyridin-5-yl)oxy)cyclohexyl)pyrimidine-5-carboxamide]	500 to 1000	500 to 1000
E (% remaining = 0-25%)	> 116	< 0.5	10 to 500	10 to 500	–	–	–	–	–	–	O=C(N[C@H]1CC[C@@H](Oc2nc(N3CCOCC3)cc3ncccc23)CC1)c1ccco1 [Compound 132, N-((1s,4s)-4-((7-Morpholino-1,6-naphthyridin-5-yl)oxy)cyclohexyl)furan-2-carboxamide]	10 to 500	10 to 500
E (% remaining = 0-25%)	> 116	0.5 to 1	–	–	–	–	–	–	–	–	O=C(N[C@H]1CC[C@@H](Oc2nc(N3CCOCC3)cc3ncccc23)CC1)c1ccc(C(F)(F)F)o1 [Compound 133, N-((1s,4s)-4-((7-Morpholino-1,6-naphthyridin-5-yl)oxy)cyclohexyl)-5-(trifluoromethyl)furan-2-carboxamide]	1000 to 10000	1000 to 10000
F (% remaining = 25-50%)	< 116	< 0.5	1000 to 10000	1000 to 10000	G (% remaining = 50-75%)	< 8.2	–	–	–	–	CS(=O)(=O)Nc1cnc2cc(N3CCOCC3)nc(O[C@H]3CC[C@@H](n4ccnc4)CC3)c2c1 [Compound 161, N-(5-(((1s,4s)-4-(1H-imidazol-1-yl)cyclohexyl)oxy)-7-morpholino-1,6-naphthyridin-3-yl)methanesulfonamide]	–	–
G (% remaining = 50-75%)	< 116	< 0.5	–	–	G (% remaining = 50-75%)	< 8.2	H (% remaining = 75-100%)	< 8.2	F (% remaining = 25-50%)	> 116	CS(=O)(=O)Nc1cnc2cc(N3CCOCC3)nc(O[C@H]3CC[C@@H](Nc4ncccn4)CC3)c2c1 [Compound 185, N-(7-morpholino-5-(((1s,4s)-4-(pyrimidin-2-ylamino)cyclohexyl)oxy)-1,6-naphthyridin-3-yl)methanesulfonamide]	–	–
